Consider 14 molecules from patent publication US10590082B2, “N-(5-((aryl or heteroaryl)methyloxy)pentyl)-substituted iminosugars as inhibitors of glucosylceramide synthase” (Academisch Medisch Centrum, priority 2014, dated 2020).

For experiment [1], the system named is intestinal glycosidases. Conditions: background statement; cited from earlier work.
For experiment [2], the target named is T1, GBA2 (Homo sapiens, UniProt Q9HCG7).
T1 construct: measured using a membrane fraction obtained from Gaucher spleen; from tissue; host or cells: membrane fraction of Gaucher spleen, pre-treated with conduritol B-epoxide
T1 sequence (Q9HCG7 1-927): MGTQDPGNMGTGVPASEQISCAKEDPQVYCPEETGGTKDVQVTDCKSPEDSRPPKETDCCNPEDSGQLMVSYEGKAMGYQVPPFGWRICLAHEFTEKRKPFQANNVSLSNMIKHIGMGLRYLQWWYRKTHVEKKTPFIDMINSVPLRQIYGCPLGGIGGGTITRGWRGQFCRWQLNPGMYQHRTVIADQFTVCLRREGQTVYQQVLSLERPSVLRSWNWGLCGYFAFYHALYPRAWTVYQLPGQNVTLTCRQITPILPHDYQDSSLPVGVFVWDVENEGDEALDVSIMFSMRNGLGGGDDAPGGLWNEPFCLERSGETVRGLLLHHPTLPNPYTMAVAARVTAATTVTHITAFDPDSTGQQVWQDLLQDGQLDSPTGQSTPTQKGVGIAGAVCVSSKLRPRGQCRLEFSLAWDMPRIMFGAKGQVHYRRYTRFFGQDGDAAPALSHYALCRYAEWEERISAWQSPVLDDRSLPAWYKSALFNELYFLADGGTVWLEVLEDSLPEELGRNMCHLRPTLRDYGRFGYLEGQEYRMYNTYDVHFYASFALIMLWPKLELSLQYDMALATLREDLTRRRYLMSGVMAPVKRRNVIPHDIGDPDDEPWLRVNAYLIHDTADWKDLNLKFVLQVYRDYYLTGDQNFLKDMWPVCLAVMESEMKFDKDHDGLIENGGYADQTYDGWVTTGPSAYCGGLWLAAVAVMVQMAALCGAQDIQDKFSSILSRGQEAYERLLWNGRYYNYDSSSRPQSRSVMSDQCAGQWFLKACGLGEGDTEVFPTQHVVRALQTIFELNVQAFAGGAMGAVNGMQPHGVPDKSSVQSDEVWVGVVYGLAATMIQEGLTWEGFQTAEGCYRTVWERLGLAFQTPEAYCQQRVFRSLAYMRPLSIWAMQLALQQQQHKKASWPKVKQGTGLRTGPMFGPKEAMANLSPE
The experiment can be described thus: GBA2 activity, membrane fraction from Gaucher spleen, 4-MU-β-glucoside substrate.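 Note: Read-out is fluorimetric quantification of released 4-MU.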 The format is biochemical.

Experiment [3] has as its target T2, GBA1 (Homo sapiens, UniProt P04062, R534H).
T2 construct: purchased Sanofi (Cerezyme)
T2 sequence (P04062 40-536 R534H): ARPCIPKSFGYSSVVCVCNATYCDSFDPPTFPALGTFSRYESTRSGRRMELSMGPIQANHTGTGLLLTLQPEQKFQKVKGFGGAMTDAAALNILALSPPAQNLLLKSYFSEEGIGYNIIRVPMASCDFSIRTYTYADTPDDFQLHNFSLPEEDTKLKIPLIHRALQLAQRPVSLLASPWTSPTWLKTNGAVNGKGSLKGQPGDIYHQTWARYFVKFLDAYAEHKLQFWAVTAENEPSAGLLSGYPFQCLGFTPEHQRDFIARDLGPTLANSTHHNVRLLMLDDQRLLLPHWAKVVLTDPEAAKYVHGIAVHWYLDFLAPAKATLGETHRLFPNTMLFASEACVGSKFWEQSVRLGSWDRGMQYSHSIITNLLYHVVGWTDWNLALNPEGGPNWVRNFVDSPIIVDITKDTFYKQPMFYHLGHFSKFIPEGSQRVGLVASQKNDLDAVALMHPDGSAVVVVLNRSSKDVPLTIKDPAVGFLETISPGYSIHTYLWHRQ
Nature of the experiment: GBA1 activity, recombinant human enzyme (Cerezyme), 4-MU-β-glucoside substrate.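 Note: enzyme activity read out as fluorescence of the 4-MU released from the substrate, measured on a fluorimeter.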 The format is biochemical.

Experiment [4] addresses T3, glucosylceramide synthase (GCS) (Mus musculus, UniProt O88693).
T3 construct: IC50 values for GCS activity were measured using living cells; endogenous in cells
T3 sequence (O88693 1-394): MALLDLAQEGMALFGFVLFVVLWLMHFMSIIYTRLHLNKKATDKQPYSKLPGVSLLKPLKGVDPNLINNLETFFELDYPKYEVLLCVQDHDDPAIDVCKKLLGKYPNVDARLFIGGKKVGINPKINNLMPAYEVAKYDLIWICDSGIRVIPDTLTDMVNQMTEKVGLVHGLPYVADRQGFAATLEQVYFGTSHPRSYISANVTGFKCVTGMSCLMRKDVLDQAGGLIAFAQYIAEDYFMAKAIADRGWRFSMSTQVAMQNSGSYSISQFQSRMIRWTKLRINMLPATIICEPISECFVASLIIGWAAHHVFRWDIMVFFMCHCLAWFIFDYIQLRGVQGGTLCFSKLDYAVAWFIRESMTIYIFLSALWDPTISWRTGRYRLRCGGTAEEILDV
The experiment can be described thus: GCS activity in living macrophage  cells (C6-NBD lipid, TLC readout). The format is cell-based. The note with it: read-out: GCS [nM] (IC50).

Setting [5] is: D-gluco configuration series, Example 3.
Setting [6] is: L-ido configuration series, Example 4.

The structures appear in SMILES notation. Where two headings read alike, the source gives them in different places.

Take `OC[C@H]1[C@@H](O)[C@H](O)[C@@H](O)CN1CCCCCOCC12CC3CC(CC(C3)C1)C2` [Compound 2, (adamantanemethyloxypentyl)-L-ido-deoxynojirimycin]: the “inhibitory activity against the intestinal glycosidases” value in experiment [1] was “little to no inhibitory activity”.

`COc1ccc(-c2ccc(COCCCCCN3C[C@H](O)[C@@H](O)[C@H](O)[C@H]3CO)cc2)cc1` [Compound 33]: the IC50 in experiment [2] (setting [5]) worked out at 10 nM; in experiment [3], 2500 nM; in experiment [4] it was 25 nM.

Consider `Cc1ccccc1-c1ccc(COCCCCCN2C[C@H](O)[C@@H](O)[C@H](O)[C@H]2CO)cc1` [Compound 34], for which the IC50 in experiment [2] (setting [5]) worked out at 0.5 nM; in experiment [3], 70 nM; in experiment [4] (setting [5]), 25 nM.

With `Cc1cccc(-c2ccc(COCCCCCN3C[C@H](O)[C@@H](O)[C@H](O)[C@H]3CO)cc2)c1` [Compound 35], the figures for the IC50 in experiment [2] (setting [5]), in experiment [3] and in experiment [4] were 2 nM, 250 nM and 100 nM, respectively.

Turning to `Cc1ccc(-c2ccc(COCCCCCN3C[C@H](O)[C@@H](O)[C@H](O)[C@H]3CO)cc2)cc1` [Compound 36], the values for the IC50 in experiment [2] (setting [5]), in experiment [3] and in experiment [4] were 3 nM, 250 nM and 100 nM, respectively.

On to `C[C@H](OCCCCCN1C[C@H](O)[C@@H](O)[C@H](O)[C@@H]1CO)c1ccc(-c2ccccc2)cc1` [Compound 38], for which the IC50 in experiment [2] (setting [6]) is 2 nM; in experiment [3] it was 10000 nM; in experiment [4] (setting [6]), 30 nM.

Consider `C[C@@H](OCCCCCN1C[C@H](O)[C@@H](O)[C@H](O)[C@@H]1CO)c1ccc(-c2ccccc2)cc1` [Compound 39], for which the IC50 in experiment [2] (setting [6]) came to 1 nM; in experiment [3], 10000 nM; in experiment [4] (setting [6]), 40 nM.

Regarding `OC[C@H]1[C@@H](O)[C@H](O)[C@@H](O)CN1CCCCCOCc1ccccc1-c1ccccc1` [Compound 40], the IC50 was 3 nM in experiment [2] (setting [6]), 15000 nM in experiment [3] and 25 nM in experiment [4].

Consider `OC[C@H]1[C@@H](O)[C@H](O)[C@@H](O)CN1CCCCCOCc1cccc(-c2ccccc2)c1` [Compound 41], for which the IC50 stood at 2 nM in experiment [2] (setting [6]), 20000 nM in experiment [3] and 75 nM in experiment [4].

With `OC[C@H]1[C@@H](O)[C@H](O)[C@@H](O)CN1CCCC(F)(F)COCc1ccc(-c2ccccc2)cc1` [Compound 43], the 50% inhibitory concentration (IC50) came out at 2 nM in experiment [2] (setting [6]), 12500 nM in experiment [3] and 15 nM in experiment [4].

`OC[C@H]1[C@@H](O)[C@H](O)[C@@H](O)CN1CCCCCOCc1ccc(-c2ccccc2)cc1C(F)(F)F` [Compound 44]: the IC50 in experiment [2] (setting [6]) was 0.1 nM; in experiment [3], 5000 nM; in experiment [4], 3 nM.

In the case of `OC[C@H]1[C@@H](O)[C@H](O)[C@@H](O)CN1CCCCCOCc1ccc(-c2ccccc2)c(C(F)(F)F)c1` [Compound 45], the IC50 came out at 0.1 nM in experiment [2] (setting [6]), 6000 nM in experiment [3] and 3 nM in experiment [4].

In the case of `OC[C@H]1[C@@H](O)[C@H](O)[C@@H](O)CN1CCCCCOCc1ccc(-c2ccccc2)cc1F` [Compound 46], the IC50 in experiment [2] (setting [6]) came out at 0.4 nM; in experiment [3] it was 8000 nM; in experiment [4] it was 5 nM.

`OC[C@H]1[C@@H](O)[C@H](O)[C@@H](O)CN1CCCCCOCc1ccc(-c2ccccc2)c(F)c1` [Compound 47]: the IC50 in experiment [2] (setting [6]) came to 0.6 nM; in experiment [3] it was 6000 nM; in experiment [4] it was 2.5 nM.
